Results: patent US9145372B2, “Pyridazine derivatives, compositions and methods for treating cognitive impairment” (AGENEBIO, INC., priority 2010, dated 2015)
“Also recorded” adds a separate entry of the source.

Key:
[1] = tested on: aged-impaired (AI) rats; assay: Morris water maze behavioral task after ICV infusion; assay type: in vivo, rat; conditions: 100 μg ICV
Method: The effects of 6,6 dimethyl-3-(3-hydroxypropyl)thio-1-(thiazol-2-yl)-6,7-dihydro-2-benzothiophen-4(5H)-one on the in vivo spatial memory retention of aged-impaired (AI) rats were assessed in a Morris water maze behavioral task. A water maze is a pool surrounded with a novel set of patterns relative to the maze.
Cognitively impaired aged rats were implanted unilaterally with a cannula into the lateral ventricle. Stereotaxic coordinates were 1.0 mm posterior to bregma, 1.5 mm lateral to midline, and 3.5 mm ventral to the skull surface. After about a week of recovery, the rats were pre-trained in a water maze for 2 days (6 trials per day) to locate a submerged escape platform hidden underneath the surface of the pool, in which the escape platform location varied from day to day. No intracerebroventricular (ICV) infusion was given during pre-training
After pre-training, rats received ICV infusion of either 100 μg 6,6 dimethyl-3-(3-hydroxypropyl)thio-1-(thiazol-2-yl)-6,7-dihydro-2-benzothiophen-4(5H)-one (n=6) in 5 μl DMSO or vehicle DMSO (n=5) 40 min prior to water maze training and testing. Training consisted of 8 trials per day for 2 days where the hidden escape platform remained in the same location. Rats were given 60 seconds to locate the platform with a 60 seconds inter-trial interval. The rats were given a probe test (120 seconds) 24 hr after the end of training where the escape platform was removed. During the training, there were 4 blocks, where each block had 4 training trials.
Rats treated with vehicle and 6,6 dimethyl-3-(3-hydroxypropyl)thio-1-(thiazol-2-yl)-6,7-dihydro-2-benzothiophen-4(5H)-one found the escape platform about the same time at the beginning of training (block 1). In this block of training, rats treated with vehicle and 6,6 dimethyl-3-(3-hydroxypropyl)thio-1-(thiazol-2-yl)-6,7-dihydro-2-benzothiophen-4(5H)-one both spent about 24 seconds to find the escape platform. However, rats treated with 6,6 dimethyl-3-(3-hydroxypropyl)thio-1-(thiazol-2-yl)-6,7-dihydro-2-benzothiophen-4(5H)-one were able to find the platform more proficiently (i.e., quicker) at the end of training (block 4) than those treated with vehicle alone. In block 4, rats treated with 6,6 dimethyl-3-(3-hydroxypropyl)thio-1-(thiazol-2-yl)-6,7-dihydro-2-benzothiophen-4(5H)-one spent about 9.6 seconds to find the escape platform, while rats treated with vehicle spent about 19.69 seconds.
During a test trial 24 hr after training, the escape platform was removed. The search/swim pattern of the rats was used to measure whether the rats remember where the escape platform was located during pre-trial training in order to test for the long-term memory of the rats. […]

[2] = tested on: aged-impaired (AI) rats; assay: Radial Arm Maze (RAM) behavioral task, spatial memory retention; assay type: in vivo, rat; conditions: four-hour delay RAM
Method: The effects of methyl 3,5-diphenylpyridazine-4-carboxylate on the in vivo spatial memory retention of aged-impaired (AI) rats were assessed in a Radial Arm Maze (RAM) behavioral task using vehicle control and four different dosage levels of methyl 3,5-diphenylpyridazine-4-carboxylate (0.1 mg/kg, 0.3 mg/kg, 1 mg/kg and 3 mg/kg, ip). RAM behavioral tasks were performed on eight AI rats. All five treatment conditions (vehicle and four dosage levels) were tested on all eight rats.
The RAM apparatus used consisted of eight equidistantly-spaced arms. An elevated maze arm (7 cm width×75 cm length) projected from each facet of an octagonal center platform (30 cm diameter, 51.5 cm height). Clear side walls on the arms were 10 cm high and were angled at 65° to form a trough. A food well (4 cm diameter, 2 cm deep) was located at the distal end of each arm. Froot Loops™ (Kellogg Company) were used as rewards. Blocks constructed of Plexiglas™ (30 cm height×12 cm width) could be positioned to prevent entry to any arm. Numerous extra maze cues surrounding the apparatus were also provided.
The AI rats were initially subjected to a pre-training test (Chappell et al. Neuropharmacology 37: 481-487, 1998). The pre-training test consisted of a habituation phase (4 days), a training phase on the standard win-shift task (18 days) and another training phase (14 days) in which a brief delay was imposed between presentation of a subset of arms designated by the experimenter (e.g., 5 arms available and 3 arms blocked) and completion of the eight-arm win-shift task (i.e., with all eight arms available).
In the habituation phase, rats were familiarized to the maze for an 8-minute session on four consecutive days. In each of these sessions, food rewards were scattered on the RAM, initially on the center platform and arms and then progressively confined to the arms. After this habituation phase, a standard training protocol was used, in which a food pellet was located at the end of each arm. Rats received one trial each day for 18 days. Each daily trial terminated when all eight food pellets had been obtained or when either 16 choices were made or 15 minutes had elapsed. After completion of this training phase, a second training phase was carried out in which the memory demand was increased by imposing a brief delay during the trial. At the beginning of each trial, three arms of the eight-arm maze were blocked. Rats were allowed to obtain food on the five arms to which access was permitted during this initial “information phase” of the trial. Rats were then removed from the maze for 60 seconds, during which time the barriers on the maze were removed, thus allowing access to all eight arms. […]

[3] = molecular target: GABAA α5 receptor (Rattus norvegicus, UniProt P18508+P19969); assay: GABAA α5 receptor occupancy in vivo with Ro 15-4513 tracer (hippocampus vs cerebellum); conditions: i.v.
From the text: Adult male Long Evans rats (265-295 g, Charles River, Portage, Mich., n=4/group) were used for GABAA α5 receptor occupancy studies. Rats were individually housed in ventilated stainless-steel racks on a 12:12 light/dark cycle. Food and water were available ad libitum.
Ro 15-4513 was used as a receptor occupancy (RO) tracer for GABAA α5 receptor sites in the hippocampus and cerebellum. Ro 15-4513 was chosen as the tracer based on its selectivity for GABAA α5 receptors relative to other alpha subunit containing GABAA receptors and because it has been successfully used for GABAA α5 RO studies in animals and humans (see, e.g., Lingford-Hughes et al., J. Cereb. Blood Flow Metab. 22:878-89 (2002); Pym et al, Br. J. Pharmacol. 146: 817-825 (2005); and Maeda et al., Synapse 47: 200-208 (2003)). Ro 15-4513 (1 μg/kg), was dissolved in 25% hydroxyl-propyl beta-cyclodextrin and administered i.v. 20′ prior to the RO evaluations. Methyl 3,5-diphenylpyridazine-4-carboxylate (0.1-10 mg/kg) was synthesized by Nox Pharmaceuticals (India) and was dissolved in 25% hydroxyl-propyl beta-cyclodextrin and administered i.v. 15′ prior to tracer injection.
The rats were sacrificed by cervical dislocation 20′ post tracer injection. The whole brain was rapidly removed, and lightly rinsed with sterile water. Trunk blood was collected in EDTA coated eppendorf tubes and stored on wet ice until study completion. Hippocampus and cerebellum were dissected and stored in 1.5 ml eppendorf tubes, and placed on wet ice until tissue extraction. In a drug naïve rat, six cortical brain tissues samples were collected for use in generating blank and standard curve samples.
Acetonitrile containing 0.1% formic acid was added to each sample at a volume of four times the weight of the tissue sample. For the standard curve (0.1-30 ng/g) samples, a calculated volume of standard reduced the volume of acetonitrile. The sample was homogenized (FastPrep-24, Lysing Matrix D; 5.5 m/s, for 60 seconds or 7-8 watts power using sonic probe dismembrator; Fisher Scientific) and centrifuged for 16-minutes at 14,000 rpm. The (100 μl) supernatant solution was diluted by 300 μl of sterile water (pH 6.5). This solution was then mixed thoroughly and analyzed via LC/MS/MS for […] (tracer) and methyl 3,5-diphenylpyridazine-4-carboxylate.
Receptor occupancy was determined by the ratio method which compared occupancy in the hippocampus (a region of high GABAA α5 receptor density) with occupancy in the cerebellum (a region with low GABAA α5 receptor density) and additionally by a high dose of the GABAA α5 negative allosteric modulator L-655,708 (10 mg/kg, i.v.) to define full occupancy.

[4] = probe test 24 hr after training

Sequence of GABAA α5 receptor (P19969 32-464 limits assumed): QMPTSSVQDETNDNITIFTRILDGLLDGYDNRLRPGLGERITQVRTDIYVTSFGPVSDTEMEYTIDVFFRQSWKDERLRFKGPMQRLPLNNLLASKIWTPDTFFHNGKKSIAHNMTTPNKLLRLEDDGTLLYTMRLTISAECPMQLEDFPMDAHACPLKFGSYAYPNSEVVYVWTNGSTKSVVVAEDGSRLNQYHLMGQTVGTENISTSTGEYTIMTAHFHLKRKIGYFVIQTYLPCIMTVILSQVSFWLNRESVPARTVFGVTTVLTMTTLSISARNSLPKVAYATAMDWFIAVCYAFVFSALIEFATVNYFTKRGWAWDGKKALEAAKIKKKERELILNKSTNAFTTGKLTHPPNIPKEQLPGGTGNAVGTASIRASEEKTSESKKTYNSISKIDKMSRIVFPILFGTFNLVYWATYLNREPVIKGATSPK
Sequence of GABAA α5 receptor (P18508 39-466): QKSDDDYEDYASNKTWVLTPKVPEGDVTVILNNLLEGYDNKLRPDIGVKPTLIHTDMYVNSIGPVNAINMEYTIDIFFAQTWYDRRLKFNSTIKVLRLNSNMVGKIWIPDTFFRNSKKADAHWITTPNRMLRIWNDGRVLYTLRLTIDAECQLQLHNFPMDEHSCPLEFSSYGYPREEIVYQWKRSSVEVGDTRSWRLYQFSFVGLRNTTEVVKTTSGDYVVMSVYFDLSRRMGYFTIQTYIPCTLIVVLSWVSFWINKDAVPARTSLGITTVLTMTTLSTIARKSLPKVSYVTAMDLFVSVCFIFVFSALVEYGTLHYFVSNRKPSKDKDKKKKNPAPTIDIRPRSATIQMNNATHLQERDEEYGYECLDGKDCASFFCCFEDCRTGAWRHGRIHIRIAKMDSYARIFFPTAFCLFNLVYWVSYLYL
Sequence of GABAA α5 receptor (P63079 26-473 partner): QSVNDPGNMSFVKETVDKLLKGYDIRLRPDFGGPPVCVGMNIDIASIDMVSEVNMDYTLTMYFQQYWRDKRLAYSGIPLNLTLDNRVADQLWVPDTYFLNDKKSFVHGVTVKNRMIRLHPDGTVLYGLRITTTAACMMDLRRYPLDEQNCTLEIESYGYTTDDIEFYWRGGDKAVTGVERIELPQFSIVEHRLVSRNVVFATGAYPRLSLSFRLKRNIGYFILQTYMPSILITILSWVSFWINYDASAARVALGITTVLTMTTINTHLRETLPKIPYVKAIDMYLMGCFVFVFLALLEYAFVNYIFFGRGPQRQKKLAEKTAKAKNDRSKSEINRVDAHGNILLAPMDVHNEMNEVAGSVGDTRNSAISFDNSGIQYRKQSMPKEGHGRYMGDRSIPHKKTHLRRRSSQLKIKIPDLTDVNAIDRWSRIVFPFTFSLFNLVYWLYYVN

Compound | time to find the escape platform (escape latency), block 1 ([1]; beginning of training) | time to find the escape platform (escape latency), block 4 ([1]; end of training) | number of crossings of target annulus compared to opposite annulus [1, 4] | time in target annulus compared to opposite annulus [1, 4] | memory performance relative to vehicle control ([2]; 3 mg/kg) | memory performance relative to vehicle control ([2]; 10 mg/kg) | Ro 15-4513 binding in hippocampus ([3]; 0.01-10 mg/kg) | cerebellum levels (binding) of Ro 15-4513 ([3]; 0.01-10 mg/kg) | GABAA α5 receptor occupancy ([3]; 10 mg/kg)
CC1(C)CC(=O)c2c(SCCCO)sc(-c3nccs3)c2C1 [6,6 dimethyl-3-(3-hydroxypropyl)thio-1-(thiazol-2-yl)-6,7-dihydro-2-benzothiophen-4(5H)-one] | about 24 seconds | about 9.6 seconds | more often | significantly more time in the target annulus | – | – | – | – | –
CCOC(=O)c1ncn2c1Cn1c(C)nnc1-c1cc(OC)ccc1-2 [ethyl 3-methoxy-7-methyl-9H-benzo[f]imidazo[1,5-a][1,2,4]triazolo[4,3-d][1,4]diazepine-10-carboxylate] | – | – | – | – | significantly improved memory performance | significantly improved memory performance | blocked; also recorded: reduced | did not affect; also recorded: without affecting | > 90%
